How the values were obtained:
Type in all cases: cell-based
E. coli cells [1] = experiment: Recovery of porphyrine bonded to E. coli cells after dark incubation and washing steps; conditions: 1 μM porphyrine, 5 minutes
Description: (§1) For this, porphyrines of different chemical structures (see drawing) were incubated with E. coli and S. aureus cells in the dark. The porphyrines were added to aqueous suspension comprising an amount of bacterial cells of 10^8 per ml and stored for 5 minutes in the dark. Finally, the amount of porphyrine bonded to the cells was measured depending on the number of washing […] (the washing was carried out by means of physiological solutions) by chemical extraction followed spectrophotofluorimetric determination.

E. coli cells [2] = experiment: Inhibition of growth of E. coli cells after 5-minute incubation in the dark (optical density at 650 nm); conditions: growth at 37° C
Description: as §1
(§2) The survival rate of the bacterial cells after incubation with the different porphyrines was determined by diluting 0.3 ml of the suspension with 2.7 ml of the culture medium and recording the optical density at 650 nm depending on the time. The suspensions were kept at 37° C. The percentual inhibition of growth was calculated with reference to a suspension of comparative cells which had been treated with the same method, however had not been added to the porphyrine.

S. aureus cells [3] = experiment: Recovery of porphyrine bonded to S. aureus cells after dark incubation and washing steps; conditions: 1 μM porphyrine, 5 minutes in the dark
Description: as §1

S. aureus cells [4] = experiment: Inhibition of growth of S. aureus cells after 5-minute incubation in the dark (optical density at 650 nm); conditions: growth at 37° C
Description: as §1, §2

## CCCCCC[n+]1ccc(-c2c3nc(c(-c4cc[n+](CCCCCC)cc4)c4ccc([nH]4)c(-c4cc[n+](CCCCCC)cc4)c4nc(c(-c5cc[n+](CCCCCC)cc5)c5ccc2[nH]5)C=C4)C=C3)cc1 [tetra-C6]
E. coli cells [1]
  recovery (nmol/mg protein) 1 washing step: 1.39 ± 0.23 nmol/mg protein
  recovery (nmol/mg protein) 3 washing steps: 0.94 ± 0.24 nmol/mg protein
  % bonded after 3 washing steps: 57.0%
  recovery (nmol/mg protein) no washing: 1.65 ± 0.17 nmol/mg protein

## CCCCCCCCCCCCCCCCCCCCCC[n+]1ccc(-c2c3nc(c(-c4cc[n+](C)cc4)c4ccc([nH]4)c(-c4cc[n+](C)cc4)c4nc(c(-c5cc[n+](C)cc5)c5ccc2[nH]5)C=C4)C=C3)cc1 [mono-C22]
E. coli cells [1]
  recovery (nmol/mg protein) 1 washing step: 2.60 ± 0.04 nmol/mg protein
  recovery (nmol/mg protein) 3 washing steps: 3.04 ± 0.34 nmol/mg protein
  % bonded after 3 washing steps: 59.4%
  recovery (nmol/mg protein) no washing: 5.12 ± 0.46 nmol/mg protein
E. coli cells [2]; 1 μM porphyrine
  inhibition of growth (%) E. coli: 19.1%
E. coli cells [2]; 10 μM porphyrine
  inhibition of growth (%) E. coli: 16.8%
S. aureus cells [3]
  recovery (nmol/mg protein) 1 washing step: 5.65 ± 0.13 nmol/mg protein
  recovery (nmol/mg protein) 3 washing steps: 4.95 ± 0.30 nmol/mg protein
  % bonded after 3 washing steps: 77.5%
  recovery (nmol/mg protein) no washing: 6.39 ± 0.40 nmol/mg protein
S. aureus cells [4]; 1 μM porphyrine
  inhibition of growth (%) S. aureus: 39.9%
S. aureus cells [4]; 10 μM porphyrine
  inhibition of growth (%) S. aureus: 70.1%

## CCCCCCCCCC[n+]1ccc(-c2c3nc(c(-c4cc[n+](C)cc4)c4ccc([nH]4)c(-c4cc[n+](C)cc4)c4nc(c(-c5cc[n+](C)cc5)c5ccc2[nH]5)C=C4)C=C3)cc1 [mono-C10]
E. coli cells [1]
  recovery (nmol/mg protein) 1 washing step: 2.78 ± 0.53 nmol/mg protein
  recovery (nmol/mg protein) 3 washing steps: 1.48 ± 0.38 nmol/mg protein
  % bonded after 3 washing steps: 40.4%
  recovery (nmol/mg protein) no washing: 3.66 ± 0.071 nmol/mg protein
E. coli cells [2]; 1 μM porphyrine
  inhibition of growth (%) E. coli: 4.6%
E. coli cells [2]; 10 μM porphyrine
  inhibition of growth (%) E. coli: 10.7%
S. aureus cells [3]
  recovery (nmol/mg protein) 1 washing step: 5.70 ± 0.54 nmol/mg protein
  recovery (nmol/mg protein) 3 washing steps: 4.09 ± 0.13 nmol/mg protein
  % bonded after 3 washing steps: 57.4%
  recovery (nmol/mg protein) no washing: 7.13 ± 0.25 nmol/mg protein
S. aureus cells [4]; 1 μM porphyrine
  inhibition of growth (%) S. aureus: 27.8%
S. aureus cells [4]; 10 μM porphyrine
  inhibition of growth (%) S. aureus: 50%

## CCCCCC[n+]1ccc(-c2c3nc(c(-c4cc[n+](C)cc4)c4ccc([nH]4)c(-c4cc[n+](C)cc4)c4nc(c(-c5cc[n+](C)cc5)c5ccc2[nH]5)C=C4)C=C3)cc1 [mono-C6]
E. coli cells [1]
  recovery (nmol/mg protein) 1 washing step: 1.01 ± 0.12 nmol/mg protein
  recovery (nmol/mg protein) 3 washing steps: 0.39 ± 0.12 nmol/mg protein
  % bonded after 3 washing steps: 24.7%
  recovery (nmol/mg protein) no washing: 1.58 ± 0.28 nmol/mg protein
E. coli cells [2]; 1 μM porphyrine
  inhibition of growth (%) E. coli: 0.5%
E. coli cells [2]; 10 μM porphyrine
  inhibition of growth (%) E. coli: 14.6%
S. aureus cells [3]
  recovery (nmol/mg protein) 1 washing step: 2.05 ± 0.11 nmol/mg protein
  recovery (nmol/mg protein) 3 washing steps: 1.02 ± 0.12 nmol/mg protein
  % bonded after 3 washing steps: 33.6%
  recovery (nmol/mg protein) no washing: 3.04 ± 0.05 nmol/mg protein
S. aureus cells [4]; 1 μM porphyrine
  inhibition of growth (%) S. aureus: 5.1%
S. aureus cells [4]; 10 μM porphyrine
  inhibition of growth (%) S. aureus: 8.8%

## C[n+]1ccc(-c2c3nc(c(-c4cc[n+](C)cc4)c4ccc([nH]4)c(-c4cc[n+](Cc5ccccc5)cc4)c4nc(c(-c5cc[n+](C)cc5)c5ccc2[nH]5)C=C4)C=C3)cc1 [mono-benzyl]
E. coli cells [1]
  recovery (nmol/mg protein) 1 washing step: 1.67 ± 0.06 nmol/mg protein
  recovery (nmol/mg protein) 3 washing steps: 0.71 ± 0.08 nmol/mg protein
  % bonded after 3 washing steps: 28.2%
  recovery (nmol/mg protein) no washing: 2.52 ± 0.13 nmol/mg protein
E. coli cells [2]; 1 μM porphyrine
  inhibition of growth (%) E. coli: 0.1%
E. coli cells [2]; 10 μM porphyrine
  inhibition of growth (%) E. coli: 13%
S. aureus cells [4]; 1 μM porphyrine
  inhibition of growth (%) S. aureus: 1.6%
S. aureus cells [4]; 10 μM porphyrine
  inhibition of growth (%) S. aureus: 25%

## CCCCCCCCCCCCCCCCCC[n+]1ccc(-c2c3nc(c(-c4cc[n+](C)cc4)c4ccc([nH]4)c(-c4cc[n+](C)cc4)c4nc(c(-c5cc[n+](C)cc5)c5ccc2[nH]5)C=C4)C=C3)cc1 [mono-C18]
E. coli cells [1]
  recovery (nmol/mg protein) 1 washing step: 4.08 ± 0.62 nmol/mg protein
  recovery (nmol/mg protein) 3 washing steps: 2.54 ± 0.38 nmol/mg protein
  % bonded after 3 washing steps: 60.5%
  recovery (nmol/mg protein) no washing: 4.20 ± 0.16 nmol/mg protein
E. coli cells [2]; 1 μM porphyrine
  inhibition of growth (%) E. coli: 2.7%
E. coli cells [2]; 10 μM porphyrine
  inhibition of growth (%) E. coli: 85.7%
S. aureus cells [4]; 1 μM porphyrine
  inhibition of growth (%) S. aureus: 39.8%
S. aureus cells [4]; 10 μM porphyrine
  inhibition of growth (%) S. aureus: 96.6%

## CCCCCCCCCCCCCC[n+]1ccc(-c2c3nc(c(-c4cc[n+](C)cc4)c4ccc([nH]4)c(-c4cc[n+](C)cc4)c4nc(c(-c5cc[n+](C)cc5)c5ccc2[nH]5)C=C4)C=C3)cc1 [mono-C14]
E. coli cells [1]
  recovery (nmol/mg protein) 1 washing step: 3.06 ± 0.25 nmol/mg protein
  recovery (nmol/mg protein) 3 washing steps: 2.28 ± 0.04 nmol/mg protein
  % bonded after 3 washing steps: 42.4%
  recovery (nmol/mg protein) no washing: 5.38 ± 0.06 nmol/mg protein
E. coli cells [2]; 1 μM porphyrine
  inhibition of growth (%) E. coli: 46.1%
E. coli cells [2]; 10 μM porphyrine
  inhibition of growth (%) E. coli: 100%
S. aureus cells [3]
  recovery (nmol/mg protein) 1 washing step: 5.53 ± 0.74 nmol/mg protein
  recovery (nmol/mg protein) 3 washing steps: 4.32 ± 0.13 nmol/mg protein
  % bonded after 3 washing steps: 65.9%
  recovery (nmol/mg protein) no washing: 6.56 ± 0.40 nmol/mg protein
S. aureus cells [4]; 1 μM porphyrine
  inhibition of growth (%) S. aureus: 69.1%
S. aureus cells [4]; 10 μM porphyrine
  inhibition of growth (%) S. aureus: 92.4%

## C[n+]1ccc(-c2c3nc(c(-c4cc[n+](C)cc4)c4ccc([nH]4)c(-c4cc[n+](C)cc4)c4nc(c(-c5cc[n+](C)cc5)c5ccc2[nH]5)C=C4)C=C3)cc1 [T4MPyP]
E. coli cells [1]
  recovery (nmol/mg protein) 1 washing step: 0.19 ± 0.04 nmol/mg protein
  recovery (nmol/mg protein) 3 washing steps: 0.05 ± 0.01 nmol/mg protein
  % bonded after 3 washing steps: 11.4%
  recovery (nmol/mg protein) no washing: 0.44 ± 0.04 nmol/mg protein
E. coli cells [2]; 1 μM porphyrine
  inhibition of growth (%) E. coli: 0.6%
E. coli cells [2]; 10 μM porphyrine
  inhibition of growth (%) E. coli: 3.1%
S. aureus cells [3]
  recovery (nmol/mg protein) 1 washing step: 0.10 ± 0.01 nmol/mg protein
  recovery (nmol/mg protein) 3 washing steps: 0.11 ± 0.01 nmol/mg protein
  % bonded after 3 washing steps: 16.2%
  recovery (nmol/mg protein) no washing: 0.68 ± 0.05 nmol/mg protein
S. aureus cells [4]; 1 μM porphyrine
  inhibition of growth (%) S. aureus: 3.1%
S. aureus cells [4]; 10 μM porphyrine
  inhibition of growth (%) S. aureus: 7.8%

From patent publication US20030153546A1, “Microbicidal effect of prophyrines in darkness” (priority 1999, published 2003)
